Results published in patent publication EP4134671A1, “METHYLENE QUINUCLIDINONE COMPANION DIAGNOSTICS” (Deutsches Krebsforschungszentrum Stiftung des öffentlichen …, priority 2021, dated 2023).

Columns and labels:
[1] = system: p53 target gene expression (CDKN1A and GADD45A); assay: Real-time PCR of p53 pathway activation in SF188; assay type: cell-based; settings: APR-246 treatment
Method: (§1) Real-time PCR was performed as described previously (Fischer et al., J Mol Diagn 2005, 7, 89-96; Witt et al., Blood 2003, 101, 2001-2007). The following primers were purchased from ThermoFisher Scientific: CDKN1A (p21^WAF1/^CIP1, forward: 5'-TGGAGACTCTCAGGGTCGAAA-3'(SEQ ID NO:1), reverse: 5'-GGCGTTTGGAGTGGTAGAAATC-3'(SEQ ID NO.2)), HPRT (forward: 5'-TGACACTGGCAAAACAATGCA-3'(SEQ ID NO:3), reverse: 5'-GGTCCTTTTCACCAGCAAGCT-3'(SEQ ID NO:4)), SDHA (forward: 5'-TGGGAACAAGAGGGCATCTG-3'(SEQ ID NO:5), reverse: 5'-CCACCACTGCATCAAATTCATG-3'(SEQ ID NO:6)), and PUMA (forward: 5'-CCTGGAGGGTCCTGTACAATCT-3'(SEQ ID NO:7), reverse: 5'-GCACCTAATTGGGCTCCATCT-3'(SEQ ID NO:8)). The primer for GADD45A was purchased from Qiagen, Hilden, Germany (QT00014084). The delta-delta-Ct method was used to calculate the relative expression, and normalization was performed to neuroblastoma specific housekeeping genes SDHA and HPRT (Fischer et al., J Mol Diagn 2005, 7, 89-96).

[2] = system: p53 target gene expression; assay: Real-time PCR of p53 pathway activation in SK-N-BE(2)-C; assay type: cell-based; settings: SK-N-BE(2)-C (C135F), 24 h
Method: as §1

[3] = system: p53 target genes CDKN1A, PUMA and GADD45A; assay: Real-time PCR of p53 pathway activation in IMR-32; assay type: cell-based; settings: IMR-32 (TP53-wt), 24 h
Method: as §1

[4] = system: p53 target gene expression (CDKN1A and GADD45A); assay: Real-time PCR of p53 pathway activation in SJ-GBM2; assay type: cell-based; settings: APR-246 treatment
Method: as §1

IMR-32 cells = assay: Flow cytometry: ROS (DCFDA) and lipid peroxidation (BODIPY); assay type: cell-based; settings: IMR-32, 50 µM APR-246 for 5 h vs solvent control (DMSO), FACS
Method: Flow Cytometry was applied to analyze the lipid peroxidation (BODIPY staining) and to detect ROS (DCFDA staining). BODIPY 581/591 C11 Lipid peroxidation sensor staining (stock concentration: 20 mM in dimethylformamide, Invitrogen, Thermo Fisher Scientific) was used at a working concentration of 20 µM, and was diluted with RPMI without phenol red (Gibco). After inspection, the cells were detached, centrifuged and stained for 20 minutes at 37°C in a 500 µl staining solution. After centrifugation, cells were resuspended in 300 µl RPMI without phenol red, supplemented with 10% FCS. Fluorescence was measured in a FACSCanto II (BD) with 488 nm excitation and detected using a 502 nm longpass and 530/30 nm bandpass filter. Data were analyzed using FlowJo 10.x.
ROS detection was performed as previously described (Oehme et al., Proc Natl Acad Sci U S A 2013, 110, E2592-2601).

[5] = clinical; cited from earlier work
Zebrafish embryo = Zebrafish embryo drug toxicity assay; assay type: in vivo; settings: embryos 48 hpf, 34°C, imaged at 72 hpf and 120 hpf; APR-246 range 10-200 µM, Vorinostat range 2.5-100 µM
Method: The toxicity of the compounds was assessed before performing in vivo experiments and a Maximum Tolerated Dose (MTD) was determined. Embryos (48 hpf) were transferred to 48-well uncoated plates (Corning) containing different concentrations of the compounds and a solvent control. The stock solution of the compounds was further dissolved in E3 buffer supplemented with 0.2mM 1-phenyl-2- thiourea (PTU, Sigma) in order to reach the desired concentrations. Three embryos were tested per concentration or solvent control. Embryos were kept at 34°C during the experiment and were imaged at 72 hpf and 120 hpf using a stereo microscope (Leica). The embryos were assessed for signs of toxicity, like death, morphology changes (curvature of body, edema) and behavioral changes. APR-246 concentration range tested: 10-200 µM, MTD: 50µM; solvent control: DMSO (0.2% and 0.5%); Vorinostat concentration range tested: 2.5-100 µM, no toxicity detected (MTD: 100µM); solvent control: DMSO (0.1%).

[6] = system: vincristine resistant SK-N-BE(2)-C; assay: Metabolic activity assay (CellTiter-Glo), vincristine resistant cells; assay type: cell-based; settings: vincristine resistant vs non-resistant control SK-N-BE(2)-C; 72 h, APR-246 0 - 30 µM
Method: Vincristine resistant and non-resistant SK-N-BE(2)-C (passage 30 to 45, kindly provided by M. Michaelis, University of Kent, and J. Cinatl, Goethe University, Frankfurt am Main) were cultured using IMDM with L-Glutamine, 2mM HEPES (Gibco) supplemented with 10% FCS; for the resistant cells, 20 ng/ml vincristine was added to the medium. The cells were made to be resistant to vincristine-treatment through long-term cultivation in a vincristine containing medium.
If not otherwise declared, cells were precultured for 72 h at a density of 2,000,000 cells per T75 flask (exceptions: Kelly, NB1 and IMR-32 4,000,000 per T75 flask, SJ-GBM2 1,000,000 per T75 flask). Cells were detached with trypsin-EDTA (ThermoFisher Scientific) and seeded in 96-well plates (Greiner, Microplate, 96-Well, PS, F-bottom µCLEAR®, CELLSTAR®) in 100 µl medium per well at a density of 5,000 (KNS-42, SJ-GBM2, SF188, SK-N-BE(2)-C) or 10,000 (IMR-32, NB1, Kelly) cells/well. HDAC-inhibitor screenings were performed accordingly in 384-well plates (Greiner, Microplate, 384-Well, PS, F-bottom µCLEAR®, CELLSTAR®) in 20 µl medium per well at a density of 1,250 (SK-N-BE(2)-C, SK-N-AS) or 2,500 (IMR-32) cells/well. […] Cell viability was quantified using CellTiter-Glo® 2.0 kit (Promega, Madison, USA). […] Bioluminescence was quantified on an OPTIMA plate reader (BMG Labtech, Ortenberg, Germany).

[7] = Clinical plasma pharmacokinetics (background); assay type: in vivo; settings: estimated from Cmax and half-life
SK-N-BE(2)-C = assay: Metabolic activity assay (CellTiter-Glo); assay type: cell-based; settings: for IC50: SK-N-BE(2)-C
Method: (§2) If not otherwise declared, cells were precultured for 72 h at a density of 2,000,000 cells per T75 flask (exceptions: Kelly, NB1 and IMR-32 4,000,000 per T75 flask, SJ-GBM2 1,000,000 per T75 flask). Cells were detached with trypsin-EDTA (ThermoFisher Scientific) and seeded in 96-well plates (Greiner, Microplate, 96-Well, PS, F-bottom µCLEAR®, CELLSTAR®) in 100 µl medium per well at a density of 5,000 (KNS-42, SJ-GBM2, SF188, SK-N-BE(2)-C) or 10,000 (IMR-32, NB1, Kelly) cells/well. HDAC-inhibitor screenings were performed accordingly in 384-well plates (Greiner, Microplate, 384-Well, PS, F-bottom µCLEAR®, CELLSTAR®) in 20 µl medium per well at a density of 1,250 (SK-N-BE(2)-C, SK-N-AS) or 2,500 (IMR-32) cells/well. To avoid edge effects, margin wells (row A and H, column 1 and 12) contained PBS or medium and medium-containing wells were used as background controls. After 24 h incubation, cells were treated for 72 h. Drugs were applied using a Tecan D300e drug printer. Cell viability was quantified using CellTiter-Glo® 2.0 kit (Promega, Madison, USA). 50 µl CellTiter-Glo® (96-well) or 25 µl CellTiter-Glo® (384-well) were added to every well, the plates were shaken at 400 rpm for 5 min and were then incubated for another 10 min. Bioluminescence was quantified on an OPTIMA plate reader (BMG Labtech, Ortenberg, Germany).
(§3) All cell culture experiments were performed in triplicate. A two-tailed t-test, unpaired or paired, or ANOVA where appropriate, were performed using software program R (R version 3.2.2, 2015; The R Foundation for Statistical Computing). The packages tidyverse, janitor, readxl, writxl, ROCR, ggplot2 and ggsignif were used to calculate and plot the data. P-values of less than 0.05 were considered significant (^∗p < 0.05, ^∗∗p < 0.01, ^∗∗∗p < 0.001). IC50 values were calculated using GraphPad Prism Version 9.1.0 (GraphPad Software). Synergistic interactions were analyzed with SynergyFinder using the HSA (highest single agent) reference model, as the assumptions of other models were not fulfilled.

IMR-32 = assay: Metabolic activity assay (CellTiter-Glo); assay type: cell-based; settings: for IC50: IMR-32
Method: as §2, §3

SK-N-AS = assay: Metabolic activity assay (CellTiter-Glo); assay type: cell-based
Method: as §2, with “HDAC-inhibitor screenings were performed accordingly in 384-well plates (Greiner, Microplate, 384-Well, PS, F-bottom µCLEAR®, CELLSTAR®) in 20 µl medium per well at a density of 1,250 (SK-N-BE(2)-C, SK-N-AS) or 2,500 (IMR-32) cells/well.” left out
as §3, with “A two-tailed t-test, unpaired or paired, or ANOVA where appropriate, were performed using software program R (R version 3.2.2, 2015; The R Foundation for Statistical Computing).” left out

SF188 = assay: Metabolic activity assay (CellTiter-Glo); assay type: cell-based; settings: doxorubicin combined with APR-246
Method: as §2, §3

SJ-GBM2 = assay: Metabolic activity assay (CellTiter-Glo); assay type: cell-based; settings: doxorubicin combined with APR-246
Method: as §2, §3

[8] = HDAC inhibitor alone, 72 h, 384-well
[9] = Homo sapiens, HDAC inhibitor alone, 72 h, 384-well

Row | IC50 (SK-N-BE(2)-C; [8]) | IC50 (SK-N-AS; HDAC inhibitor + APR-246 20 µM) | IC50 (SK-N-AS; [9]) | Compound | Maximum Tolerated Dose (MTD) (Zebrafish embryo) | IC50 (SK-N-BE(2)-C; HDAC inhibitor + APR-246 10 µM) | IC50 (IMR-32; [9]) | IC50 (IMR-32; HDAC inhibitor + APR-246 2 µM) | further results
1 |  |  |  | COCC1(CO)C(=O)C2CCN1CC2 (stereo not drawn) [APR-246, 2-(Hydroxymethyl)-2-(methoxymethyl)-1-azabicyclo[2.2.2]octan-3-one] | 50 µM |  |  |  | p53 target gene expression (CDKN1A and GADD45A) [1]: no reactivation; p53 target gene induction ([2]; APR-246 added to doxorubicin): did not improve p53 target gene induction; p53 target gene expression ([3]; APR-246 added to doxorubicin vs doxorubicin only): did not increase target gene expression; p53 target gene expression (CDKN1A and GADD45A) [4]: no reactivation; ROS formation and lipid peroxidation (IMR-32 cells): increased ROS formation and lipid peroxidation; half-life [5]: four to five; maximum plasma concentration [5]: approximately 280 µM; APR-246 sensitivity (metabolic activity) [6]: increased APR-246 sensitivity; estimated trough plasma concentration [7]: 15 to 20 µM
2 | 172 nM | 15.4 nM | 46.3 nM | CN(C)Cc1c(C(=O)NCCOc2ccc(C(=O)NO)cc2)oc2ccccc12 [abexinostat, 3-[(Dimethylamino)methyl]-N-{2-[4-(hydroxycarbamoyl)phenoxy]ethyl}-1-benzofuran-2-carboxamide] |  | 37.5 nM | 100 nM | 30.4 nM | 
3 |  |  |  | COc1cccc2c1C(=O)c1c(O)c3c(c(O)c1C2=O)C[C@@](O)(C(=O)CO)C[C@@H]3O[C@H]1C[C@H](N)[C@H](O)[C@H](C)O1 [doxorubicin] |  |  |  |  | p53 target gene expression ([2]; doxorubicin single treatment): failed to activate p53 target gene expression; cell viability (SF188): decreased cell viability; cell viability (SJ-GBM2): decreased cell viability; doxorubicin sensitivity (metabolic activity) (SK-N-BE(2)-C; doxorubicin resistant TP53-mutant SK-B-BE(2)-C, fixed APR-246 concentration with different doses of doxorubicin): increased doxorubicin sensitivity; doxorubicin sensitivity (metabolic activity) (IMR-32; IMR-32 (TP53-wt), fixed APR-246 concentration with different doses of doxorubicin): increased doxorubicin sensitivity; p53 target genes CDKN1A, PUMA and GADD45A expression ([3]; doxorubicin single-treatment): upregulation
4 | 40.2 nM | 1 nM | 2.2 nM | Cc1[nH]c2ccccc2c1CCNCc1ccc(/C=C/C(=O)NO)cc1 [panobinostat, (2E)-N-hydroxy-3-[4-({[2-(2-methyl-1H-indol-3-yl)ethyl]amino}methyl)phenyl]acrylamide] |  |  | 35.6 nM | 13.9 nM | IC50 (SK-N-BE(2)-C; HDAC inhibitor + APR-246 20 µM): 3.1 nM
5 |  |  |  | O=C(CCCCCCC(=O)Nc1ccccc1)NO [vorinostat, N-Hydroxy-N'-phenyloctanediamide] | 100 µM |  |  |  | HSA synergy score (SK-N-AS; 72 h co-treatment of vorinostat (0-10 µM) with APR-246 (0, 15, 30, 45 µM), SynergyFinder HSA model): 12.17

Row | Compound | IC50 (SK-N-BE(2)-C; [8]) | IC50 (SK-N-AS; HDAC inhibitor + APR-246 20 µM) | IC50 (SK-N-AS; [9]) | Maximum Tolerated Dose (MTD) (Zebrafish embryo) | IC50 (SK-N-BE(2)-C; HDAC inhibitor + APR-246 10 µM) | IC50 (IMR-32; [9]) | IC50 (IMR-32; HDAC inhibitor + APR-246 2 µM) | further results
6 | C/C=C1\NC(=O)[C@H]2CSSCC/C=C/[C@H](CC(=O)N[C@H](C(C)C)C(=O)N2)OC(=O)[C@H](C(C)C)NC1=O [romidepsin] | 26.9 nM | 1.8 nM | 5.7 nM |  | 9.9 nM | 0.73 nM |  | IC50 (IMR-32; HDAC inhibitor + APR-246 1 µM): 0.24 nM
